Assay results: US20130281462A1, “ARYL DIAMIDINES AND PRODRUGS THEREOF FOR TREATING MYOTONIC DYSTROPHY” (University of Oregon, priority 2012, published 2013)
“Also recorded” adds a separate entry of the source. Where two headings read alike, the source gives them in different places. Blank lines part the entries; values can stand above or below the molecule they belong to.

Columns and labels:
[1] = test system: TNNT2 minigene exon 5 splicing in HeLa cells expressing 960 CUG repeats; assay: TNNT2 minigene splicing rescue in HeLa cell DM1 model; assay type: cell-based; conditions: for rescue of TNNT2 exon 5 mis-splicing: propamidine up to 130 μM; for EC50: read-out: concentration needed to observe 50% rescue (EC50) of TNNT2 mis-splicing, exon 5 inclusion, 16-18 hours
MBNL1/(CUG)4 complex = molecular target: T1, MBNL1/(CUG)4 complex (Homo sapiens, UniProt Q9NR56); assay: competitive EMSA (gel shift assay), disruption of the MBNL1/(CUG)4 complex; assay type: binding
T1 construct: The MBNL1 medium construct (1-260) was purified as previously described; made in house
T1 sequence (Q9NR56 1-260): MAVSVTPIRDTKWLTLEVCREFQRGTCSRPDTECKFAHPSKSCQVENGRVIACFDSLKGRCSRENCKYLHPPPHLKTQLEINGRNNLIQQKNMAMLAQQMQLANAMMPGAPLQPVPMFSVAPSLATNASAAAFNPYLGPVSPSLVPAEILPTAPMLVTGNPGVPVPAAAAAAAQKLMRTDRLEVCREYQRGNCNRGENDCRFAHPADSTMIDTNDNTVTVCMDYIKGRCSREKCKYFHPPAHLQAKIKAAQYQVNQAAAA

[2] = test system: INSR minigene exon 11 splicing in HeLa cells expressing 960 CUG repeats; assay: INSR minigene splicing rescue in HeLa cell DM1 model; assay type: cell-based; conditions: for EC50: HeLa cell DM1 model, exon 11 inclusion, 16-18 hours, read-out: EC50 for rescue of INSR mis-splicing
Clcn1 exon 7a = Clcn1 exon 7a splicing in vastus muscle of HSALR DM1 mice; assay type: in vivo
Procedure: (§1) Homozygous HSALR transgenic mice in line 20b (FVB inbred background) were previously described (Mankodi et al., Science 289″1769-1773, 2000). Gender-matched mice of 10-14 weeks of age were treated with heptamidine at the indicated dose by daily intraperitoneal injection for 7 days. Control mice received 5% glucose injections. Mice were sacrificed 1 d after the final injection and vastus (quadriceps) muscle was obtained for splicing analysis. Mice in the withdrawal (WD) group were treated with 30 mg/kg heptamidine for 7 days and then left untreated for 10 days before sacrifice. […] RNA was isolated, reverse transcribed, and amplified by PCR, and analyzed on agarose gels using a fluorimager as previously described (Warf et al., Proc. Natl. Acad. Sci. USA 106:18551-18556, 2009).
The HSA^LR DM1 mouse model expresses 220 CUG repeats under the skeletal promoter (Mankodi et al., Science 289″1769-1773, 2000). […] Wild type adult mice include exon 7a of the Clcn1 pre-mRNA at a level of 4±1% while HSA^LR mice include exon 7a at steady state levels of 47±1% (FIG. 3, note that exon 7a inclusion isoforms are subject to nonsense mediated decay).

water solubility = assay type: physicochemical
Atp2a1 exon 22 = Atp2a1 exon 22 splicing in vastus muscle of HSALR DM1 mice; assay type: in vivo
Procedure: as §1
The MBNL regulated exon of Atp2a1 (exon 22) is included in the presence of MBNL proteins (positively regulated). Wild type adult mice included this exon 100±1% of the time (FIG. 4). When MBNL proteins are sequestered by the 220 CUG repeats present in HSALR mice, exon 22 inclusion drops to 23±3%. […] Additionally, after being treated with 30 mg/kg heptamidine for 7 d, mice went untreated for 10 days, and splicing of Clcn1 and Atp2a1 was examined. […] The severity of myotonia was graded by insertion of extracellular recording electrodes into muscle tissue (electromyography) under general anesthesia.

HSALR mice = assay: electromyography, myotonia grade in vastus muscle of HSALR mice; assay type: in vivo; conditions: 20 or 30 mg/kg for 7 days, controls grade 3
Procedure: as §1
Electromyography was performed under general anesthesia as described previously (Kanadia, Science 302:1978-1980, 2003). Briefly, at least 10 needle insertions were performed in vastus muscle and myotonic discharges were graded on a four point scale: 0, no myotonia; 1, occasional myotonic discharge in less than 50% of needle insertions; 2, myotonic discharge with more than 50% of insertions; and 3, myotonic discharge with nearly all insertions.

[3] = molecular target: T2, MBNL1 (residues 1-260, medium construct) (UniProt Q9NR56 Q9NR56:1-260); assay: EMSA; 250 nM MBNL1, 0.5 nM RNA, 175 mM NaCl, 5 mM MgCl2, 20 mM Tris pH 7.5, heparin 0.1 mg/mL, RT; complex disrupted by diamidines (pentamidine IC50 39 uM, small-molecule competition); conditions: label: 5'-32P; hairpin with UUCG cap
T2 sequence: T1 sequence (Q9NR56 1-260)
Procedure: The 5′ end labeled (CUG)₄ RNA was heated at 95° C. for 3 minutes in 250 mM NaCl, 25 mM MgCl₂, and 75 mM Tris pH 7.5 by heating at 95° C. for 3 minutes. The reaction was cooled on ice for 5 minutes, BSA and heparin were added, and the reaction cooled another 5 minutes. MBNL1 was then added to the RNA and incubated at room temperature (RT) for 10 minutes. Amidine derivative was added, followed by another 5 minute RT incubation, followed by the addition of bromophenol blue. The final reaction volume of 10 μL was incubated at RT for 25 minutes. Final reaction conditions were 0.5 nM (CUG)₄, 175 mM NaCl, 20 mM Tris pH 7.5, 5 mM MgCl₂, 2 mg/mL BSA, 0.1 mg/mL heparin, 1.25 mM β-mercaptoethanol, 1.25% (v/v) glycerol, 250 μM bromophenol blue, and 250 nM MBNL. Bromophenol blue was added at 250 μM since the activity of pentamidine is dependent upon bromophenol blue in vitro. […] IC₅₀ values were calculated as previously described (Warf et al., Proc. Natl. Acad. Sci. USA 106:18551-18556, 2009). In brief, gels were quantified using ImageQuant™ software (Molecular Dynamics/GE Healthcare, Piscataway, N.J.). The percent of RNA bound was determined by taking the ratio of the RNA:protein complex (including any well shifting) to the total RNA, per lane. IC₅₀ values were determined with KaleidaGraph (Synergy, Reading, Pa.) software using the equation: […]

[4] = competitive EMSA, 250 nM MBNL, 0.5 nM (CUG)4, 250 μM bromophenol blue, ± standard deviation of triplicate, read-out: IC50 of diamidine analogs
[5] = 30 mg/kg for 7 days, then 10 days untreated
[6] = HSALR mice, daily intraperitoneal for 7 days
[7] = competitive EMSA as in Example 1, Table 2, read-out: IC50 of diamidine derivatives

Molecule: N=C(N)c1ccc(OCCCCCCOc2ccc(C(=N)N)cc2)cc1 [Hexamidine]
cell toxicity (HeLa cells): low toxicity
EC50 ([1]; Homo sapiens): 12 ± 3 µM
IC50 (MBNL1/(CUG)4 complex; [4]): 26 ± 2 µM
EC50 ([2]; Homo sapiens): 15 ± 1 µM

Molecule: N=C(N)c1ccc(OCCCCCCCCCOc2ccc(C(=N)N)cc2)cc1 [Nonamidine]
concentration that is toxic / causes significant cell death (HeLa cells; HeLa cells, TNNT2 splicing assay): 4 µM
rescue of TNNT2 exon 5 mis-splicing [1]: unable to rescue splicing defects before causing significant cell death
IC50 (MBNL1/(CUG)4 complex; [4]): 14 ± 1 µM
EC50 [2]: 6 ± 1 µM

Molecule: N=C(N)c1ccc(OCCCCCCCCOc2ccc(C(=N)N)cc2)cc1 [Octamidine]
cell toxicity (HeLa cells): toxicity issues
rescue of TNNT2 exon 5 mis-splicing [1]: slight rescue of TNNT2 mis-splicing
IC50 (MBNL1/(CUG)4 complex; [4]): 20 ± 1 µM
EC50 [2]: 7 ± 1 µM

Molecule: N=C(N)c1ccc(OCCCOc2ccc(C(=N)N)cc2)cc1 [Propamidine]
concentration that is toxic / causes significant cell death (HeLa cells; human): > 130 µM
rescue of TNNT2 exon 5 mis-splicing [1]: did not have the desired effect on TNNT2 mis-splicing
IC50 (MBNL1/(CUG)4 complex; [4]): 250 ± 10 µM
EC50 ([2]; Homo sapiens): 64 ± 10 µM

Molecule: CC(=O)ON=C(N)c1ccc(OCCCCCCCOc2ccc(C(N)=NOC(C)=O)cc2)cc1 [acetoxy-amdine derivative of heptamidine]
cell toxicity of prodrugs relative to parent amidine (HeLa cells): less toxic than heptamidine

Molecule: CC(=O)ONC(=N)c1ccc(OCCCCCOc2ccc(C(=N)NOC(C)=O)cc2)cc1 [compound 128, 1,5-bis(4-acetoxyamidinophenoxy)pentane (diacetyldiamidoximeester)]
cell toxicity of prodrugs relative to parent amidine (HeLa cells): less toxic than pentamidine
activity of pentamidine prodrugs in the INSR splicing assay ([2]; HeLa cell splicing assay, FIG. 6): showed activity in the splicing assay

Molecule: GCUGCUGUUCGCUGCUG (ssRNA) [(CUG)4 hairpin RNA]
binding result [3]: binds

More lines, main results first:

EC50 [1]: 23 ± 5 µM
IC50 (MBNL1/(CUG)4 complex; [4]): 85 ± 17 µM
EC50 [2]: 34 ± 7 µM
Molecule: N=C(N)c1ccc(OCCCCOc2ccc(C(=N)N)cc2)cc1 [Butamidine]
rescue of TNNT2 exon 5 mis-splicing [1]: lowered exon 5 inclusion levels below that of wild type

EC50 ([1]; Homo sapiens): 15 ± 6 µM
water solubility (water solubility): retaining water solubility
IC50 (MBNL1/(CUG)4 complex; [4]): 20 ± 2 µM
EC50 ([2]; Homo sapiens): 9 ± 1 µM
Molecule: N=C(N)c1ccc(OCCCCCCCOc2ccc(C(=N)N)cc2)cc1 [Heptamidine]
Clcn1 splicing after withdrawal (Clcn1 exon 7a; [5]): exon inclusion levels returned to control HSALA levels; also recorded: complete return to disease state splicing levels
Clcn1 exon 7a inclusion (Clcn1 exon 7a; HSALR mice, 20 mg/kg daily intraperitoneal for 7 days, wild type 4±1%, HSALR 47±1%): 6±1%
rescue of Clcn1 exon 7a mis-splicing (Clcn1 exon 7a; [6]): dose-dependent reduction of exon 7a inclusion; also recorded: Complete rescue
Atp2a1 splicing after withdrawal (Atp2a1 exon 22; [5]): exon inclusion levels returned to control HSALA levels; also recorded: complete return to disease state splicing levels
rescue of Atp2a1 exon 22 missplicing (Atp2a1 exon 22; HSALR mice, 30 mg/kg): about 50%
Atp2a1 exon 22 inclusion (Atp2a1 exon 22; HSALR mice, 30 mg/kg/day for 7 days, wild type 100±1%, HSALR 23±3%): 62±4%
rescue of Atp2a1 exon 22 mis-splicing (Atp2a1 exon 22; [6]): full rescue with heptamidine could not be reached; also recorded: Partial rescue of missplicing
myotonia grade (electromyography) (HSALR mice): grade 1 (occasional myotonic discharge) or grade 0; also recorded: occasional myotonic discharges with less than 50% of insertions (grade 1) or no myotonia (grade 0)

EC50 ([1]; Homo sapiens): 20 ± 4 µM
IC50 (MBNL1/(CUG)4 complex; [4]): 39 ± 2 µM
EC50 ([2]; Homo sapiens): 31 ± 2 µM
Molecule: N=C(N)c1ccc(OCCCCCOc2ccc(C(=N)N)cc2)cc1 [Pentamidine, reference compound]
rescue of TNNT2 exon 5 mis-splicing [1]: lowered exon 5 inclusion levels below that of wild type

IC50 (MBNL1/(CUG)4 complex; [7]): 281 µM
Molecule: N=C(N)c1ccc(OCCCOc2ccccc2)cc1 [drawing 8 n=3]

IC50 (MBNL1/(CUG)4 complex; [7]): 209 µM
Molecule: N=C(N)c1ccc(OCCCCOc2ccccc2)cc1 [drawing 8 n=4]

IC50 (MBNL1/(CUG)4 complex; [7]): 199 µM
Molecule: N=C(N)c1ccc(OCCCCCOc2ccccc2)cc1 [drawing 8 n=5]

IC50 (MBNL1/(CUG)4 complex; [7]): 236 µM
Molecule: N=C(N)c1ccc(OCCCCCCOc2ccccc2)cc1 [drawing 8 n=6]

IC50 (MBNL1/(CUG)4 complex; [7]): 253 µM
Molecule: N=C(N)c1ccc(OCCCCCCCOc2ccccc2)cc1 [drawing 8 n=7]

IC50 (MBNL1/(CUG)4 complex; [7]): 414 µM
Molecule: N=C(N)c1ccc(OCCc2ccccc2)cc1 [drawing 9 n=2]

IC50 (MBNL1/(CUG)4 complex; [7]): 169 µM
Molecule: N=C(N)c1ccc(OCCCc2ccccc2)cc1 [drawing 9 n=3]

IC50 (MBNL1/(CUG)4 complex; [7]): 212 µM
Molecule: N=C(N)c1ccc(OCCCCc2ccccc2)cc1 [drawing 9 n=4]
